The text below walks through data of article PMC5218480 (PLoS ONE, 2017).

Each structure is given as a SMILES string.

The test system of the assay is MV-4-11 cells. Nature of the assay: Gene expression microarray analysis (Affymetrix PrimeView) and GSEA. It is filed as cell-based, human. On the set-up: RFU PODN (11730768_x_at) / Fold change /veh PODN (11730768_x_at) / RFU LINC00158 (11744669_a_at) / Fold change /veh LINC00158 (11744669_a_at) / RFU DUSP10 (11751237_a_at) / Fold change /veh DUSP10 (11751237_a_at) / RFU ID3 (11757404_x_at) / Fold change /veh ID3 (11757404_x_at) / RFU PLEKHG5 (11737974_s_at) / Fold change /veh PLEKHG5 (11737974_s_at) / RFU LRRC4B (11730491_at) / Fold change /veh LRRC4B (11730491_at) / RFU GIMAP4 (11747438_a_at) / Fold change /veh GIMAP4 (11747438_a_at) / RFU KRT8 (11758183_x_at) / Fold change /veh KRT8 (11758183_x_at) / RFU CNN1 (11734310_a_at) / Fold change /veh CNN1 (11734310_a_at) / RFU VPS37D (11726825_at) / Fold change /veh VPS37D (11726825_at) / RFU C10orf10 (11716522_x_at) / Fold change /veh C10orf10 (11716522_x_at) / RFU KIR2DL2 /// KIR2DL4 /// KIR2DL5A /// KIR2DL5B /// KIR2DS1 /// KIR2DS2 /// KIR2DS3 /// KIR2DS4 /// KIR3DL3 /// KIR3DL3 /// KIR3DS1 (11738374_at) / Fold change /veh KIR2DL2 /// KIR2DL4 /// KIR2DL5A /// KIR2DL5B /// KIR2DS1 /// KIR2DS2 /// KIR2DS3 /// KIR2DS4 /// KIR3DL3 /// KIR3DL3 /// KIR3DS1 (11738374_at) / RFU C1QL1 (11718748_at) / Fold change /veh C1QL1 (11718748_at) / RFU TMPRSS4 (11747572_a_at) / Fold change /veh TMPRSS4 (11747572_a_at) / RFU HAMP (11756126_x_at) / Fold change /veh HAMP (11756126_x_at) / RFU RNFT2 (11725882_a_at) / Fold change /veh RNFT2 (11725882_a_at) / RFU NR4A2 (11747474_a_at) / Fold change /veh NR4A2 (11747474_a_at) / RFU ABCC12 (11746883_a_at) / Fold change /veh ABCC12 (11746883_a_at) / RFU TMEM136 (11760407_x_at) / Fold change /veh TMEM136 (11760407_x_at) / RFU CLDN22 /// WWC2 (11732394_at) / Fold change /veh CLDN22 /// WWC2 (11732394_at) / RFU HLA-DPB1 (11760878_x_at) / Fold change /veh HLA-DPB1 (11760878_x_at) / RFU SPINT1 (11716480_a_at) / Fold change /veh SPINT1 (11716480_a_at) / RFU GAP43 (11754022_s_at) / Fold change /veh GAP43 (11754022_s_at) / RFU A4GNT (11735810_at) / Fold change /veh A4GNT (11735810_at) / RFU PRB3 (11715151_x_at) / Fold change /veh PRB3 (11715151_x_at) / RFU TUBB4B (11761932_at) / Fold change /veh TUBB4B (11761932_at) / RFU CAPN14 (11732068_a_at) / Fold change /veh CAPN14 (11732068_a_at) / RFU TMCC2 (11721928_a_at) / Fold change /veh TMCC2 (11721928_a_at) / RFU IRGQ (11745062_a_at) / Fold change /veh IRGQ (11745062_a_at) / RFU FAM174B (11720279_a_at) / Fold change /veh FAM174B (11720279_a_at) / RFU TMPRSS4 (11748680_a_at) / Fold change /veh TMPRSS4 (11748680_a_at) / RFU FAM212B (11763350_a_at) / Fold change /veh FAM212B (11763350_a_at) / RFU PLEKHG5 (11743358_a_at) / Fold change /veh PLEKHG5 (11743358_a_at) / RFU ZSCAN30 (11745921_a_at) / Fold change /veh ZSCAN30 (11745921_a_at) / RFU CMKLR1 (11741424_a_at) / Fold change /veh CMKLR1 (11741424_a_at) / RFU LOC101060620 /// MAPK8IP1 (11723275_at) / Fold change /veh LOC101060620 /// MAPK8IP1 (11723275_at) / RFU SPTSSB (11747773_x_at) / Fold change /veh SPTSSB (11747773_x_at) / RFU PRSS12 (11739890_at) / Fold change /veh PRSS12 (11739890_at) / RFU BIN1 (11741810_x_at) / Fold change /veh BIN1 (11741810_x_at) / RFU WNT11 (11732464_a_at) / Fold change /veh WNT11 (11732464_a_at) / RFU C10orf10 (11716521_a_at) / Fold change /veh C10orf10 (11716521_a_at) / RFU C5orf56 (11738089_at) / Fold change /veh C5orf56 (11738089_at) / RFU CYB561 (11721691_x_at) / Fold change /veh CYB561 (11721691_x_at) / RFU ANKRD19P (11752326_a_at) / Fold change /veh ANKRD19P (11752326_a_at) / RFU OR2T12 /// OR2T33 /// OR2T8 (11738714_s_at) / Fold change /veh OR2T12 /// OR2T33 /// OR2T8 (11738714_s_at) / RFU VCAN (11748164_a_at) / Fold change /veh VCAN (11748164_a_at) / RFU JSRP1 (11732532_at) / Fold change /veh JSRP1 (11732532_at) / RFU KRTAP10-11 (11738290_x_at) / Fold change /veh KRTAP10-11 (11738290_x_at) / RFU MYO3A (11730013_a_at) / Fold change /veh MYO3A (11730013_a_at) / RFU EBF3 (11725865_a_at) / Fold change /veh EBF3 (11725865_a_at) / RFU CAMK2N1 (11719241_x_at) / Fold change /veh CAMK2N1 (11719241_x_at) / RFU C5orf56 (11738088_a_at) / Fold change /veh C5orf56 (11738088_a_at) / RFU OLFML3 (11715873_a_at) / Fold change /veh OLFML3 (11715873_a_at) / RFU LOC100653217 /// NTM (11731650_a_at) / Fold change /veh LOC100653217 /// NTM (11731650_a_at) / RFU MAPK11 (11762145_a_at) / Fold change /veh MAPK11 (11762145_a_at) / RFU FIZ1 (11724087_x_at) / Fold change /veh FIZ1 (11724087_x_at) / RFU OASL (11726364_x_at) / Fold change /veh OASL (11726364_x_at) / RFU SOX15 (11748057_x_at) / Fold change /veh SOX15 (11748057_x_at) / RFU CD79A (11719716_a_at) / Fold change /veh CD79A (11719716_a_at) / RFU HIST1H1D (11736915_at) / Fold change /veh HIST1H1D (11736915_at) / RFU CASKIN2 (11723855_a_at) / Fold change /veh CASKIN2 (11723855_a_at) / RFU LOC730098 (11760151_x_at) / Fold change /veh LOC730098 (11760151_x_at) / RFU OR4N2 (11742367_at) / Fold change /veh OR4N2 (11742367_at) / RFU PRRT2 (11749266_a_at) / Fold change /veh PRRT2 (11749266_a_at) / RFU SNX32 (11753110_a_at) / Fold change /veh SNX32 (11753110_a_at) / RFU CDHR5 (11726645_a_at) / Fold change /veh CDHR5 (11726645_a_at) / RFU RCAN1 (11760418_a_at) / Fold change /veh RCAN1 (11760418_a_at) / RFU FAM167A (11723789_a_at) / Fold change /veh FAM167A (11723789_a_at) / RFU FAM26E (11764081_at) / Fold change /veh FAM26E (11764081_at) / RFU ISYNA1 (11749810_s_at) / Fold change /veh ISYNA1 (11749810_s_at) / RFU ACY1 (11761880_at) / Fold change /veh ACY1 (11761880_at) / RFU 11764098_at / Fold change /veh 11764098_at / RFU SAMD14 (11745864_x_at) / Fold change /veh SAMD14 (11745864_x_at) / RFU NPB (11741838_a_at) / Fold change /veh NPB (11741838_a_at) / RFU TMPRSS6 (11731388_a_at) / Fold change /veh TMPRSS6 (11731388_a_at) / RFU KRTAP10-2 (11738614_at) / Fold change /veh KRTAP10-2 (11738614_at) / RFU ARHGAP8 /// PRR5-ARHGAP8 (11727945_x_at) / Fold change /veh ARHGAP8 /// PRR5-ARHGAP8 (11727945_x_at) / RFU KRTAP5-7 /// NADSYN1 (11734609_at) / Fold change /veh KRTAP5-7 /// NADSYN1 (11734609_at) / RFU RASL12 (11751679_a_at) / Fold change /veh RASL12 (11751679_a_at) / RFU CDKN2B (11736163_a_at) / Fold change /veh CDKN2B (11736163_a_at) / RFU PRF1 (11729649_at) / Fold change /veh PRF1 (11729649_at) / RFU, ZNF638 /// ZNF638-IT1 / Fold change vs veh, ZNF638 /// ZNF638-IT1 / RFU, PANK3 / Fold change vs veh, PANK3 / RFU, SH3YL1 / Fold change vs veh, SH3YL1 / RFU, ZEB2 / Fold change vs veh, ZEB2 / RFU, NRIP1 / Fold change vs veh, NRIP1 / RFU, PTTG1IP / Fold change vs veh, PTTG1IP / RFU, CAPN2 / Fold change vs veh, CAPN2 / RFU, MED14 / Fold change vs veh, MED14 / RFU, SNORA58 / Fold change vs veh, SNORA58 / RFU, C1orf63 / Fold change vs veh, C1orf63 / RFU, LRRFIP1 / Fold change vs veh, LRRFIP1 / RFU, NDUFAF7 / Fold change vs veh, NDUFAF7 / RFU, SLC12A2 / Fold change vs veh, SLC12A2 / RFU, IBTK / Fold change vs veh, IBTK / RFU, ESF1 / Fold change vs veh, ESF1 / Fold change vs veh, TMEM50B / RFU, TAOK1 / Fold change vs veh, TAOK1 / RFU, ACBD3 / Fold change vs veh, ACBD3 / RFU, TMA16 / Fold change vs veh, TMA16 / RFU, RWDD3 / Fold change vs veh, RWDD3 / RFU, BCAT1 / Fold change vs veh, BCAT1 / RFU, EDEM3 / Fold change vs veh, EDEM3 / RFU, TMEM33 / Fold change vs veh, TMEM33 / RFU, WDR75 / Fold change vs veh, WDR75 / RFU, AHCTF1 / Fold change vs veh, AHCTF1 / RFU, TFRC / Fold change vs veh, TFRC / RFU, ZDHHC17 / Fold change vs veh, ZDHHC17 / RFU, NOM1 / Fold change vs veh, NOM1 / RFU, ARL8B / Fold change vs veh, ARL8B / RFU, ZBTB11 / Fold change vs veh, ZBTB11 / RFU, TAMM41 / Fold change vs veh, TAMM41 / RFU, KIAA1704 /// LOC100996395 / Fold change vs veh, KIAA1704 /// LOC100996395 / RFU, ING1 / Fold change vs veh, ING1 / RFU, TRMT61B / Fold change vs veh, TRMT61B / RFU, FUBP3 / Fold change vs veh, FUBP3 / RFU, TP53 / Fold change vs veh, TP53 / RFU, TNKS2 / Fold change vs veh, TNKS2 / RFU, ZFP14 / Fold change vs veh, ZFP14 / RFU, ACTR2 / Fold change vs veh, ACTR2 / RFU, PPP3R1 / Fold change vs veh, PPP3R1 / RFU, PIK3R1 / Fold change vs veh, PIK3R1 / RFU, HNRNPA1 / Fold change vs veh, HNRNPA1 / RFU, RNF170 / Fold change vs veh, RNF170 / RFU, ZNF28 / Fold change vs veh, ZNF28 / RFU, RNGTT / Fold change vs veh, RNGTT / RFU, OGT / Fold change vs veh, OGT / RFU, BRD1 / Fold change vs veh, BRD1 / RFU, MARS / Fold change vs veh, MARS / RFU, ZNF655 / Fold change vs veh, ZNF655 / RFU, FAHD1 / Fold change vs veh, FAHD1 / RFU, BDP1 / Fold change vs veh, BDP1 / RFU, LRRCC1 / Fold change vs veh, LRRCC1 / RFU, ARID1A / Fold change vs veh, ARID1A / RFU, ZNF146 / Fold change vs veh, ZNF146 / RFU, ZNF330 / Fold change vs veh, ZNF330 / RFU, GPN3 / Fold change vs veh, GPN3 / RFU, C9orf123 / Fold change vs veh, C9orf123 / RFU, N4BP2L2 / Fold change vs veh, N4BP2L2 / RFU, ARFIP1 / Fold change vs veh, ARFIP1 / RFU, FAM179B / Fold change vs veh, FAM179B / RFU, BCL10 / Fold change vs veh, BCL10 / RFU, UHRF1BP1L / Fold change vs veh, UHRF1BP1L / RFU, BET1 / Fold change vs veh, BET1 / RFU, CNOT2 / Fold change vs veh, CNOT2 / RFU, ZNF268 / Fold change vs veh, ZNF268 / Fold change vs veh, ZNF507 / RFU, DGCR2 / Fold change vs veh, DGCR2 / RFU, WDSUB1 / Fold change vs veh, WDSUB1 / Fold change vs veh, HSP90B1 /// MIR3652 / RFU, ADSS / Fold change vs veh, ADSS / RFU, GK / Fold change vs veh, GK / RFU, ZNF148 / Fold change vs veh, ZNF148 / RFU, TAF9 / Fold change vs veh, TAF9 / RFU, SLC1A5 / Fold change vs veh, SLC1A5 / RFU, SLMO2 / Fold change vs veh, SLMO2 / RFU, ABCC4 / Fold change vs veh, ABCC4 / RFU, LOC101060439 /// RAP1B / Fold change vs veh, LOC101060439 /// RAP1B / RFU, RFX7 / Fold change vs veh, RFX7 / RFU, GTPBP10 / Fold change vs veh, GTPBP10 / RFU, CNEP1R1 / Fold change vs veh, CNEP1R1 / RFU, BIVM-ERCC5 /// ERCC5 / Fold change vs veh, BIVM-ERCC5 /// ERCC5 / RFU, ILF3 / Fold change vs veh, ILF3 / RFU 11762660_at / Fold change /veh 11762660_at / RFU VCAN (11757783_s_at) / Fold change /veh VCAN (11757783_s_at) / RFU DDX43 (11728927_at) / Fold change /veh DDX43 (11728927_at) / RFU KRT8 (11758188_x_at) / Fold change /veh KRT8 (11758188_x_at) / RFU NKD1 (11759106_at) / Fold change /veh NKD1 (11759106_at) / RFU SRD5A1 (11742802_a_at) / Fold change /veh SRD5A1 (11742802_a_at) / RFU TPSAB1 /// TPSB2 (11721975_s_at) / Fold change /veh TPSAB1 /// TPSB2 (11721975_s_at) / RFU GSTM3 (11746129_a_at) / Fold change /veh GSTM3 (11746129_a_at) / RFU IL23R (11737362_x_at) / Fold change /veh IL23R (11737362_x_at) / RFU TMEM51 (11727254_a_at) / Fold change /veh TMEM51 (11727254_a_at) / RFU PIWIL2 (11732686_x_at) / Fold change /veh PIWIL2 (11732686_x_at) / RFU ORM1 (11744905_x_at) / Fold change /veh ORM1 (11744905_x_at) / RFU CCDC152 (11743942_at) / Fold change /veh CCDC152 (11743942_at) / RFU ECM1 (11717891_a_at) / Fold change /veh ECM1 (11717891_a_at) / RFU IL23R (11748794_a_at) / Fold change /veh IL23R (11748794_a_at) / RFU TNFAIP8L3 (11732012_x_at) / Fold change /veh TNFAIP8L3 (11732012_x_at) / RFU MBOAT4 (11741988_at) / Fold change /veh MBOAT4 (11741988_at) / RFU 11764193_at / Fold change /veh 11764193_at / RFU TMEM53 (11763286_at) / Fold change /veh TMEM53 (11763286_at) / RFU MAGEB2 (11727129_at) / Fold change /veh MAGEB2 (11727129_at) / RFU TMEM200A (11744735_a_at) / Fold change /veh TMEM200A (11744735_a_at) / RFU CCDC152 (11751479_a_at) / Fold change /veh CCDC152 (11751479_a_at) / RFU FAM211A (11726209_a_at) / Fold change /veh FAM211A (11726209_a_at) / RFU RGS16 (11746705_a_at) / Fold change /veh RGS16 (11746705_a_at) / RFU VCAN (11755009_s_at) / Fold change /veh VCAN (11755009_s_at) / RFU RHOB (11743442_s_at) / Fold change /veh RHOB (11743442_s_at) / RFU RGS16 (11720943_a_at) / Fold change /veh RGS16 (11720943_a_at) / RFU RGS16 (11720944_at) / Fold change /veh RGS16 (11720944_at) / RFU, VPS4B / Fold change vs veh, VPS4B / RFU, CREB1 / Fold change vs veh, CREB1 / RFU, DNAJC13 / Fold change vs veh, DNAJC13 / RFU, GNAQ / Fold change vs veh, GNAQ / RFU, CDK5R1 / Fold change vs veh, CDK5R1 / RFU, ZRANB3 / Fold change vs veh, ZRANB3 / RFU, CUL4A / Fold change vs veh, CUL4A / RFU, CCNY / Fold change vs veh, CCNY / RFU, UFL1 / Fold change vs veh, UFL1 / RFU, COG3 / Fold change vs veh, COG3 / RFU, DIAPH2 / Fold change vs veh, DIAPH2 / RFU, SKA2 / Fold change vs veh, SKA2 / RFU, AFF3 / Fold change vs veh, AFF3 / RFU, LMF1 / Fold change vs veh, LMF1 / RFU, IPO11 / Fold change vs veh, IPO11 / RFU, DFFB / Fold change vs veh, DFFB / RFU, FOXP1 / Fold change vs veh, FOXP1 / RFU, CARD8 / Fold change vs veh, CARD8 / RFU, STRN3 / Fold change vs veh, STRN3 / RFU, ADK / Fold change vs veh, ADK / RFU, RASSF2 / Fold change vs veh, RASSF2 / RFU, WIPF1 / Fold change vs veh, WIPF1 / RFU, LARP1B / Fold change vs veh, LARP1B / RFU, RASA1 / Fold change vs veh, RASA1 / RFU, RB1 / Fold change vs veh, RB1 / RFU, PPFIA1 / Fold change vs veh, PPFIA1 / RFU, MAT2A / Fold change vs veh, MAT2A / RFU, CCT5 / Fold change vs veh, CCT5 / RFU, WDR92 / Fold change vs veh, WDR92 / RFU, CUX1 / Fold change vs veh, CUX1 / RFU, TTC7A / Fold change vs veh, TTC7A / RFU, TMEM135 / Fold change vs veh, TMEM135 / RFU, DEPTOR / Fold change vs veh, DEPTOR / RFU, CPM / Fold change vs veh, CPM / RFU, DNAJB6 / Fold change vs veh, DNAJB6 / RFU, CACNA2D3 / Fold change vs veh, CACNA2D3 / RFU, DTX4 / Fold change vs veh, DTX4 / RFU, TFCP2 / Fold change vs veh, TFCP2 / RFU, GMCL1 /// GMCL1P1 / Fold change vs veh, GMCL1 /// GMCL1P1 / RFU, AEBP2 / Fold change vs veh, AEBP2 / RFU, SNHG1 /// SNORD22 /// SNORD25 /// SNORD26 /// SNORD27 /// SNORD28 /// SNORD29 /// SNORD31 / Fold change vs veh, SNHG1 /// SNORD22 /// SNORD25 /// SNORD26 /// SNORD27 /// SNORD28 /// SNORD29 /// SNORD31 / Fold change (Aza/veh), C12orf56 (ProbeSet 11735607_a_at) / Fold change (ACY-1035/veh), C12orf56 (ProbeSet 11735607_a_at) / Fold change (Aza/veh), FGFR1OP (ProbeSet 11751329_s_at) / Fold change (ACY-1035/veh), FGFR1OP (ProbeSet 11751329_s_at) / Fold change (Aza/veh), VPS36 (ProbeSet 11739960_a_at) / Fold change (ACY-1035/veh), VPS36 (ProbeSet 11739960_a_at) / RFU SYPL1 (11715823_x_at) / Fold change /veh SYPL1 (11715823_x_at) / RFU IGFBP7 (11715501_s_at) / Fold change /veh IGFBP7 (11715501_s_at) / RFU REEP3 (11722064_at) / Fold change /veh REEP3 (11722064_at) / RFU IGLL1 (11728026_x_at) / Fold change /veh IGLL1 (11728026_x_at): dose or concentration left out as unconfirmed. The conditions noted are these: MV-4-11 cells, 48 hours.

As for `Nc1ccc(-c2cccs2)cc1NC(=O)c1ccc2c(c1)cc(C1CC1)n2CCN1CCOCC1` [ACY-1035], the “RFU FIZ1 (11724087_x_at)” value was determined as 31.13 RFU.
